IC50 data for 15 molecules are collected here from BindingDB's records for doi:10.1021/jm00122a003 (Tanabe Seiyaku, 1989).

The first experiment concerns the target Angiotensin-converting enzyme (Sus scrofa). The experiment in a line: Inhibitory activity on Angiotensin I converting enzyme (ACE) obtained from pig renal cortex and hippuryl-histidyl-leucine as substrate.
In the case of `C[C@H](N[C@@H](CCc1ccccc1)C(=O)O)C(=O)N1C(=O)N(Cc2ccccc2)C[C@H]1C(=O)O`, the midpoint of inhibition, the IC50, lay at 1.7 nM.
The molecule `CC[C@H](N[C@@H](CCc1ccccc1)C(=O)O)C(=O)N1C(=O)N(Cc2ccccc2)C[C@H]1C(=O)O` displayed an IC50 of 2.3 nM.
On the same count and under the same terms, the figure for `CCCCCCCC[C@H](N[C@@H](C)C(=O)N1C(=O)N(C)C[C@H]1C(=O)O)C(=O)OCC` is 5100 nM; for `C[C@H](N[C@@H](CCc1ccccc1)C(=O)O)C(=O)N1C(=O)NC[C@H]1C(=O)O` it is 3.5 nM.
The same measure, in the same setting: with `CCCCCCCC[C@H](N[C@@H](C)C(=O)N1C(=O)N(Cc2ccccc2)C[C@H]1C(=O)O)C(=O)OCC` the figure was 2200 nM.
`CCCCN1C[C@@H](C(=O)O)N(C(=O)[C@H](C)N[C@@H](CCc2ccccc2)C(=O)O)C1=O` displayed an IC50 of 6.7 nM.
The same measure, in the same setting: with `CCCCCCCC[C@H](N[C@@H](CC)C(=O)N1C(=O)N(C)C[C@H]1C(=O)O)C(=O)O` the figure was 2.4 nM; with `C[C@@H](N[C@@H](CCc1ccccc1)C(=O)O)C(=O)N1C(=O)N(Cc2ccccc2)C[C@H]1C(=O)O`, 2400 nM.
On to `CCOC(=O)[C@H](CCc1ccccc1)N[C@@H](C)C(=O)N1C(=O)N(Cc2ccccc2)C[C@H]1C(=O)O`, for which it took 7900 nM to reach half-maximal inhibition (IC50).
Same read-out and setting: with `C[C@H](N[C@@H](Cc1ccccc1)C(=O)O)C(=O)N1C(=O)N(Cc2ccccc2)C[C@H]1C(=O)O` the figure was 11 nM; with `CC(C)C[C@H](N[C@@H](C)C(=O)N1C(=O)N(Cc2ccccc2)C[C@H]1C(=O)O)C(=O)O`, 2.1 nM.
On the same count and under the same terms, the figure for `CCCCCCCC[C@H](N[C@@H](C)C(=O)N1C(=O)N(Cc2ccccc2)C[C@H]1C(=O)O)C(=O)O` is 1.5 nM; for `CC(C)CC[C@H](N[C@@H](C)C(=O)N1C(=O)N(Cc2ccccc2)C[C@H]1C(=O)O)C(=O)O` it is 3.3 nM.

A further experiment has the same target. The description is as above. This is another data set of the same source.
As to `C[C@H](N)C(=O)N1C(=O)N(Cc2ccccc2)C[C@H]1C(=O)O`, the IC50 came to 1500 nM.
On the same count and under the same terms, the figure for `CCCCCCCC[C@H](N[C@@H](CC)C(=O)N1C(=O)N(Cc2ccccc2)C[C@H]1C(=O)O)C(=O)O` is 2.1 nM.

As a reminder, the IC50 is the concentration at which inhibition is half-maximal. A high value points to a need for much substance.
